In patent publication US10144737B2 (ETERNITY BIOSCIENCE INC., priority 2014, dated 2018):

Key:
TMD-8 cells = test: Cell proliferation assay (CellTiter-Glo), TMD-8 cells; format: cell-based; details: Homo sapiens, TMD8, 120 h, 5-day treatment, read-out: TMD8 cell growth (GI50 μM)
Experimental: Cell proliferation assay: TMD-8 and SU-DHL-1 cells were maintained at 37° C. in a humidified atmosphere with 5% CO2 in the recommended medium and serum concentrations. For cell proliferation assay, cells were seeded in 96-well pates at a density of 5,000 to 10,000 cells per well and cultured overnight at 37° C. in recommended medium supplemented with 5-10% FBS. On the next day, the test articles at various concentrations or vehicle control (0.5% DMSO) were added into cell culture. After 5-day treatment, the growth of cells was assayed by the CellTiter-Glo® Luminestceaent Cell Viability Assay (Promega). IC50 values were calculated using GraphPad Prism by plotting the logarithm of the concentration versus percent inhibition of cell growth as compared with the vehicle control.

Btk = biological target: T1, Btk (Homo sapiens, UniProt Q06187); test: Btk kinase assay (ADP-Glo); format: biochemical; details: ADP-Glo Btk kinase assay kit; ATP 1.2 μM; 60 minutes at room temperature
T1 construct: purchased Promega (Madison, Wis.)
Experimental: Btk kinase assay—The Btk kinase assay was performed using a ADP-Glo Btk kinase assay kit purchased from Promega (Madison, Wis.). The assay was conducted according to the protocols provided in the assay kit. In brief, the enzyme reaction was carried out in the kinase reaction buffer containing Btk (2 ng/μl), ATP (1.2 μM), poly GT peptide (0.3 μM), DTT (40 nM), MnCl2 (1.4 mM), and 1 xkinase buffer (included in the kit) in the presence or absence of the tested articles at various concentrations in 384-well plate at room temperature (22±1° C.) for 60 minutes. The final reaction volume for each reaction was 10 μl. Then, 4 μl of ADP-Glo reagent (included in the kit) was added into the reaction and the plate was further incubated for another 40 minutes to terminate the reaction and deplete the remaining ATP. Finally, 10 μl of the kinase detection reagent was added into each reaction to simultaneously convert ADP to ATP and allow the newly synthesized ATP to be measured by a plate-reading luminometer (Victor X5 2030 multilabel reader, PerkinElmer). IC50 value was calculated using appropriate programs in GraphPad Prism by plotting the logarithm of the concentration versus percent inhibition as compared with a vehicle (DMSO) control.

T1 sequence (Q06187 whole entry): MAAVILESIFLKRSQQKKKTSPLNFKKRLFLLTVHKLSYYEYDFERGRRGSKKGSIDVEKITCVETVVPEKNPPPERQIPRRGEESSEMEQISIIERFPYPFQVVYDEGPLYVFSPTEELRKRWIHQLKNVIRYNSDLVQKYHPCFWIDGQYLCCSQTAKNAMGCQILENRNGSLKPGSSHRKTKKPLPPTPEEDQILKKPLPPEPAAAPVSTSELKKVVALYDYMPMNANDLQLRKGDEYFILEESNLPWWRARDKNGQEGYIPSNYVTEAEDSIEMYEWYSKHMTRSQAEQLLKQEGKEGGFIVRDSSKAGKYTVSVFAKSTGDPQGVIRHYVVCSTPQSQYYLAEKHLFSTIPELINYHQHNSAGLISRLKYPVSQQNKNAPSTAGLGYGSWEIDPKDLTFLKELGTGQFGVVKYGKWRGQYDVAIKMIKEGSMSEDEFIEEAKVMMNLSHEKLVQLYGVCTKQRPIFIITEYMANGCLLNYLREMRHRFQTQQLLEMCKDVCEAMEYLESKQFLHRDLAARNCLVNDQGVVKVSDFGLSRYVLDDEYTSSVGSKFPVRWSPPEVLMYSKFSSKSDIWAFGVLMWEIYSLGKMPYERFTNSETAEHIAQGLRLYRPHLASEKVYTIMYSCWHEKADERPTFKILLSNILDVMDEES

IC50 (Btk) [nM] | Structure (SMILES) | GI50 (TMD-8 cells) [µM]
6.5 | C=CC(=O)N1CCC(Nc2ncnc3[nH]c(C#CCOc4cccc(OC)c4)nc23)C1 (centres unmarked) [Example 26, 1-(3-((8-(3-(3-methoxyphenoxy)prop-1-yn-1-yl)-9H-purin-6-yl)amino)pyrrolidin-1-yl)prop-2-en-1-one] | 0.247
16 | C=CC(=O)N1CCC(Nc2ncnc3[nH]c(C#CCOc4ccc(OC)cc4)nc23)C1 (centres unmarked) [Example 27, 1-(3-((8-(3-(4-methoxyphenoxy)prop-1-yn-1-yl)-9H-purin-6-yl)amino)pyrrolidin-1-yl)prop-2-en-1-one] | 0.094
0.4 | COc1ccccc1OCC#Cc1nc2c(NC3CCN(C(=O)/C=C/CN(C)C)C3)ncnc2[nH]1 (centres unmarked) [Example 28, (E)-1-(3-((8-(3-(2-methoxyphenoxy)prop-1-yn-1-yl)-9H-purin-6-yl)amino)pyrrolidin-1-yl)-4-(dimethylamino)but-2-en-1-one] | 0.082
0.7 | COc1cccc(OCC#Cc2nc3c(NC4CCN(C(=O)/C=C/CN(C)C)C4)ncnc3[nH]2)c1 (centres unmarked) [Example 29, (E)-1-(3-((8-(3-(3-methoxyphenoxy)prop-1-yn-1-yl)-9H-purin-6-yl)amino)pyrrolidin-1-yl)-4-(dimethylamino)but-2-en-1-one] | 1.21
19 | COc1ccc(OCC#Cc2nc3c(NC4CCN(C(=O)/C=C/CN(C)C)C4)ncnc3[nH]2)cc1 (centres unmarked) [Example 30, (E)-1-(3-((8-(3-(4-methoxyphenoxy)prop-1-yn-1-yl)-9H-purin-6-yl)amino)pyrrolidin-1-yl)-4-(dimethylamino)but-2-en-1-one] | 1.2
1.6 | C=CC(=O)N1CC[C@@H](Nc2ncnc3[nH]c(C#CCOc4ccccc4)nc23)C1 [Example 31, (R)-1-(3-((8-(3-phenoxyprop-1-yn-1-yl)-9H-purin-6-yl)amino)pyrrolidin-1-yl)prop-2-en-1-one] | 0.02
7.5 | CN(C)C/C=C/C(=O)N1CC[C@@H](Nc2ncnc3[nH]c(C#CCOc4ccccc4)nc23)C1 [Example 32, (R,E)-4-(dimethylamino)-1-(3-((8-(3-phenoxyprop-1-yn-1-yl)-9H-purin-6-yl)amino)pyrrolidin-1-yl)but-2-en-1-one] | 0.004
0.3 | CN(C)C/C=C/C(=O)N1CCC(Nc2ncnc3[nH]c(C#CCOc4ccccc4)cc23)C1 (centres unmarked) [Example 34, (E)-4-(dimethylamino)-1-(3-((6-(3-phenoxyprop-1-yn-1-yl)-7H-pyrrolo[2,3-d]pyrimidin-4-yl)amino)pyrrolidin-1-yl)but-2-en-1-one] | 0.107
0.4 | CNC/C=C/C(=O)N1CCC(Nc2ncnc3[nH]c(C#CCOc4ccccc4)cc23)C1 (centres unmarked) [Example 35] | 0.95
127 | O=C(/C=C/CN1CCOCC1)N1CCC(Nc2ncnc3[nH]c(C#CCOc4ccccc4)cc23)C1 (centres unmarked) [Example 36, (E)-4-morpholino-1-(3-((6-(3-phenoxyprop-1-yn-1-yl)-7H-pyrrolo[2,3-d]pyrimidin-4-yl)amino)pyrrolidin-1-yl)but-2-en-1-one] | 0.552
384 | C=CC(=O)N1CCC(N(C)c2ncnc3[nH]c(C#CCOc4ccccc4)cc23)C1 (centres unmarked) [Example 38, 1-(3-(methyl(6-(3-phenoxyprop-1-yn-1-yl)-7H-pyrrolo[2,3-d]pyrimidin-4-yl)amino)pyrrolidin-1-yl)prop-2-en-1-one] | 0.209
192 | CN(C)C/C=C/C(=O)N1CCC(N(C)c2ncnc3[nH]c(C#CCOc4ccccc4)cc23)C1 (centres unmarked) [Example 39, (E)-4-(dimethylamino)-1-(3-(methyl(6-(3-phenoxyprop-1-yn-1-yl)-7H-pyrrolo[2,3-d]pyrimidin-4-yl)amino)pyrrolidin-1-yl)but-2-en-1-one] | 0.299
0.3 | C=CC(=O)N1CC[C@@H](Nc2ncnc3[nH]c(C#CCOc4ccccc4)cc23)C1 [Example 40, (R)-1-(3-((6-(3-phenoxyprop-1-yn-1-yl)-7H-pyrrolo[2,3-d]pyrimidin-4-yl)amino)pyrrolidin-1-yl)prop-2-en-1-one] | 0.004
0.08 | CN(C)C/C=C/C(=O)N1CC[C@@H](Nc2ncnc3[nH]c(C#CCOc4ccccc4)cc23)C1 [Example 41, (R,E)-4-(dimethylamino)-1-(3-((6-(3-phenoxyprop-1-yn-1-yl)-7H-pyrrolo[2,3-d]pyrimidin-4-yl)amino)pyrrolidin-1-yl)but-2-en-1-one] | 0.069
0.14 | C=CC(=O)N1CC[C@@H](Nc2ncnc3[nH]c(C#CCOc4ccccc4Cl)cc23)C1 [Example 43, (R)-1-(3-((6-(3-(2-chlorophenoxy)prop-1-yn-1-yl)-7H-pyrrolo[2,3-d]pyrimidin-4-yl)amino)pyrrolidin-1-yl)prop-2-en-1-one] | 0.001
0.11 | CN(C)C/C=C/C(=O)N1CC[C@@H](Nc2ncnc3[nH]c(C#CCOc4ccccc4Cl)cc23)C1 [Example 44, (R,E)-1-(3-((6-(3-(2-chlorophenoxy)prop-1-yn-1-yl)-7H-pyrrolo[2,3-d]pyrimidin-4-yl)amino)pyrrolidin-1-yl)-4-(dimethylamino)but-2-en-1-one] | 0.012
1.1 | C=CC(=O)N1CC[C@@H](Nc2ncnc3[nH]c(C#CCOc4ccccc4OC)cc23)C1 [Example 45, (R)-1-(3-((6-(3-(2-methoxyphenoxy)prop-1-yn-1-yl)-7H-pyrrolo[2,3-d]pyrimidin-4-yl)amino)pyrrolidin-1-yl)prop-2-en-1-one] | 0.0014
0.04 | COc1ccccc1OCC#Cc1cc2c(N[C@@H]3CCN(C(=O)/C=C/CN(C)C)C3)ncnc2[nH]1 [Example 46, (R,E)-1-(3-((6-(3-(2-methoxyphenoxy)prop-1-yn-1-yl)-7H-pyrrolo[2,3-d]pyrimidin-4-yl)amino)pyrrolidin-1-yl)-4-(dimethylamino)but-2-en-1-one] | 0.017
136 | CC#CC(=O)N1CC[C@@H](Nc2ncnc3[nH]c(C#CCOc4ccccc4F)cc23)C1 [Example 47, (R)-1-(3-((6-(3-(2-fluorophenoxy)prop-1-yn-1-yl)-7H-pyrrolo[2,3-d]pyrimidin-4-yl)amino)pyrrolidin-1-yl)but-2-yn-1-one] | 0.008
432 | C/C=C/C(=O)N1CC[C@@H](Nc2ncnc3[nH]c(C#CCOc4ccccc4F)cc23)C1 [Example 48, (R,E)-1-(3-((6-(3-(2-fluorophenoxy)prop-1-yn-1-yl)-7H-pyrrolo[2,3-d]pyrimidin-4-yl)amino)pyrrolidin-1-yl)but-2-en-1-one] | 0.088
< 0.03 | CN(C)C/C=C/C(=O)N1CC[C@@H](Nc2ncnc3[nH]c(C#CCOc4ccccc4F)cc23)C1 [Example 49, (R,E)-1-(3-((6-(3-(2-fluorophenoxy)prop-1-yn-1-yl)-7H-pyrrolo[2,3-d]pyrimidin-4-yl)amino)pyrrolidin-1-yl)-4-(dimethylamino)but-2-en-1-one] | 0.017
11 | C=CC(=O)N1CC[C@@H](Nc2ncnc3[nH]c(C#Cc4ccccc4)cc23)C1 [Example 50, (R)-1-(3-((6-(phenylethynyl)-7H-pyrrolo[2,3-d]pyrimidin-4-yl)amino)pyrrolidin-1-yl)prop-2-en-1-one] | 0.009
